From US4450269A, “Mono-5-substituted-3-chloro-4H-1,2,6-thiadiazin-4-one antifungal agents” (FMC Corporation, priority 1980, dated 1984) come the findings set out here.

The assay deals with Rhizoctonia solani. Kind of assay: Mycelial growth test. In kind it is cell-based. To be noted: Rhizoctonia solani, 72 h, RS, read-out: Percent Fungus Growth Inhibition. The text has this:
| RS = Rhizoctonia solani

For `O=c1c(Cl)nsnc1Oc1ccccc1Br` [Compound 34, 3-chloro-5-(2-bromophenoxy)-4H-1,2,6,-thiadiazin-4-one], the inhibition at 5 ppm worked out at 24%, the inhibition at 10 ppm worked out at 64%, the inhibition at 20 ppm came to 76% and the inhibition at 40 ppm came out at 100%.
For `O=C(Nc1ccccc1)Oc1ccc(Oc2nsnc(Cl)c2=O)cc1` [Compound 37, 3-chloro-5-[4-(phenylaminocarbonyloxy)phenoxy]-4H-1,2,6,-thiadiazin-4-one], the inhibition at 5 ppm is 11%, the inhibition at 10 ppm worked out at 42%, the inhibition at 20 ppm was 31% and the inhibition at 40 ppm worked out at 51%.
On the same counts, the results for `O=C(OCc1ccccc1)Oc1ccc(Oc2nsnc(Cl)c2=O)cc1` [Compound 38, 3-chloro-5-[4-(phenylmethoxycarbonyloxy)phenoxyl]-4H-1,2,6-thiadiazin-4-one] are 0%, 0%, 7% and 33%.
Taken in the same sequence, the figures for `CSc1ccc(Oc2nsnc(Cl)c2=O)cc1` [Compound 39, 3-chloro-5-[(4-methylthio)phenoxy]-4H-1,2,6,-thiadiazin-4-one] were 24%, 31%, 31% and 42%.
Taken in the same sequence, the figures for `C[S+]([O-])c1ccc(Oc2nsnc(Cl)c2=O)cc1` (stereo not shown) [Compound 40, 3-chloro-5-[(4-methylsulfinyl)phenoxy]-4H-1,2,6,-thiadiazin-4-one] were 0%, 0%, 24% and 53%.
For the compound `CC(=O)Nc1cccc(Oc2nsnc(Cl)c2=O)c1` [Compound 42, 3-[(3-N--acetylamino)-phenoxy]-5-chloro-4H--1,2,6-thiadiazin-4-one], the inhibition at 5 ppm turned out to be 0%, the inhibition at 10 ppm is 4%, the inhibition at 20 ppm amounted to 31% and the inhibition at 40 ppm came to 67%.
Taken in the same sequence, the figures for `CC(=O)Nc1ccccc1Oc1nsnc(Cl)c1=O` [Compound 43, 3-[(2-acetylamino)-phenoxy]-5-chloro-4H--1,2,6-thiadiazin-4-one] were 0%, 0%, 11% and 24%.
Turning to `O=c1c(Cl)nsnc1Oc1cccc(C(F)(F)F)c1` [Compound 44, 3-chloro-5-[(3-trifluoromethyl)phenoxy]-4H--1,2,6-thiadiazin-4-one], the inhibition at 5 ppm came to 82%, the inhibition at 10 ppm is 80%, the inhibition at 20 ppm is 96% and the inhibition at 40 ppm worked out at 100%.
On the same counts, the results for `O=C(O)Cc1ccccc1Oc1nsnc(Cl)c1=O` [Compound 45, 3-(2-carboxymethylphenoxy)-5-chloro-4H--1,2,6-thiadiazin-4-one] are 0%, 0%, 13% and 42%.
Taken in the same sequence, the figures for `N#CCc1ccc(Oc2nsnc(Cl)c2=O)cc1` [Compound 46, 3-chloro-5-[(4-cyanomethyl)-phenoxy]4H--1,2,6-thiadiazin-4-one] were 27%, 56%, 64% and 100%.
Taken in the same sequence, the figures for `CC(=O)c1ccc(Oc2nsnc(Cl)c2=O)cc1` [Compound 47, 3-(4-acetylphenoxy)-5-chloro-4H--1,2,6-thiadiazin-4-one] were 58%, 47%, 69% and 78%.
`CC(=O)c1cccc(Oc2nsnc(Cl)c2=O)c1` [Compound 48, 3-(3-acetylphenoxy)-5-chloro-4H--1,2,6-thiadiazin-4-one]: the inhibition at 5 ppm stood at 64%, the inhibition at 10 ppm is 24%, the inhibition at 20 ppm turned out to be 64% and the inhibition at 40 ppm turned out to be 76%.
`CC(=O)c1ccccc1Oc1nsnc(Cl)c1=O` [Compound 49, 3-(2-acetylphenoxy)-5-chloro-4H--1,2,6-thiadiazin-4-one]: the inhibition at 5 ppm was 9%, the inhibition at 10 ppm is 24%, the inhibition at 20 ppm came out at 42% and the inhibition at 40 ppm worked out at 64%.
On the same counts, the results for `O=C(O)c1ccc(Oc2nsnc(Cl)c2=O)cc1` [Compound 50, 3-(4-carboxyphenoxy)-5-chloro-4H--1,2,6-thiadiazin-4-one] are 42%, 0%, 13% and 47%.
On the same counts, the results for `COc1ccc(Cl)c(Oc2nsnc(Cl)c2=O)c1` [Compound 51, 3-chloro-5-[(2-chloro-5-methoxy)phenoxy]-4H--1,2,6-thiadiazin-4-one] are 20%, 56%, 82% and 100%.
On the same counts, the results for `COc1cc(Cl)cc(Oc2nsnc(Cl)c2=O)c1` [Compound 52, 3-chloro-5-[(3-chloro-5-methoxy)phenoxy]-4H--1,2,6-thiadiazin-4-one] are 33%, 64%, 64% and 100%.
As to `O=c1c(Cl)nsnc1Oc1ccc([N+](=O)[O-])cc1Cl` [Compound 53, 3-chloro-5-(2-chloro-4-nitrophenoxy)-4H--1,2,6-thiadiazin-4-one], the inhibition at 5 ppm came out at 53%, the inhibition at 10 ppm is 53%, the inhibition at 20 ppm stood at 76% and the inhibition at 40 ppm is 76%.
For `Cc1cc(Oc2nsnc(Cl)c2=O)ccc1Cl` [Compound 54, 3-chloro-5-(4-chloro-3-methylphenoxy)-4H--1,2,6-thiadiazin-4-one], the inhibition at 5 ppm stood at 38%, the inhibition at 10 ppm is 42%, the inhibition at 20 ppm is 42% and the inhibition at 40 ppm was 71%.
`Cc1cc(Cl)ccc1Oc1nsnc(Cl)c1=O` [Compound 55, 3-chloro-5-(4-chloro-2-methylphenoxy)-4H--1,2,6-thiadiazin-4-one]: the inhibition at 5 ppm came out at 33%, the inhibition at 10 ppm is 56%, the inhibition at 20 ppm was 31% and the inhibition at 40 ppm was found to be 53%.
On the same counts, the results for `Cc1ccc(Cl)c(Oc2nsnc(Cl)c2=O)c1` [Compound 56, 3-chloro-5-[(2-chloro-5-methyl)phenoxy]-4H--1,2,6-thiadiazin-4-one] are 33%, 78%, 100% and 100%.
On the same counts, the results for `Cc1ccc(Oc2nsnc(Cl)c2=O)c(Br)c1` [Compound 57, 3-[(2-bromo-4-methyl)-phenoxy]-5-chloro-4H--1,2,6-thiadiazin-4-one] are 53%, 69%, 80% and 78%.
As to `Cc1cc(Cl)c(Oc2nsnc(Cl)c2=O)cc1C` [Compound 58, 3-chloro-5-[(2-chloro-4,5-dimethyl)phenoxy]-4H--1,2,6-thiadiazin-4-one], the inhibition at 5 ppm stood at 56%, the inhibition at 10 ppm came to 58%, the inhibition at 20 ppm is 53% and the inhibition at 40 ppm was 64%.
Taken in the same sequence, the figures for `Cc1cc(Oc2nsnc(Cl)c2=O)cc(C)c1Cl` [Compound 59, 3-chloro-5-[(4-chloro-3,5-dimethyl)phenoxy]-4H--1,2,6-thiadiazin-4-one] were 33%, 24%, 33% and 69%.
Taken in the same sequence, the figures for `Cc1cc(Oc2nsnc(Cl)c2=O)cc(C)c1Br` [Compound 60, 3-[(4-bromo-3,5-dimethyl)-phenoxy]-5-chloro-4H--1,2,6-thiadiazin-4-one] were 42%, 31%, 42% and 56%.
On to `COc1cc(Oc2nsnc(Cl)c2=O)cc(OC)c1C(C)=O` [Compound 61, 3-[(4-acetyl-3,5-dimethoxy)-phenoxy]-5-chloro-4H--1,2,6-thiadiazin-4-one], for which the inhibition at 5 ppm was found to be 0%, the inhibition at 10 ppm amounted to 13%, the inhibition at 20 ppm turned out to be 33% and the inhibition at 40 ppm was determined as 47%.
